In paper PMC11855827, “High-Throughput Screening of Five Compound Libraries for Anthelmintic Activity and Toxicity Leads to the Discovery of Two Flavonoid Compounds” (International Journal of Molecular Sciences, 2025):
“And” between values parts separate entries of the source, which are not always exact repeats. Equal values may be shown once.

Tested on: C. elegans
Conditions: Table S2, C. elegans SS assay, 110 μM, averages of 4 data points

C[C@@H](O)[C@H]1C(=O)N2C(C(=O)[O-])=C(S[C@@H]3CN[C@H](C(=O)Nc4cccc(C(=O)O)c4)C3)[C@H](C)[C@H]12.[Na+] [Ertapenem sodium]
Percentage of motility inhibition 0 h: 0% | Percentage of motility inhibition 24 h: 0%

COc1cc(C2Oc3ccc([C@H]4Oc5cc(O)cc(O)c5C(=O)[C@@H]4O)cc3OC2CO)ccc1O (stereo partly drawn) [Isosilybin]
Percentage of motility inhibition 0 h: 2% | Percentage of motility inhibition 24 h: 0%

Kansuiphorin C
Percentage of motility inhibition 0 h: 5% | Percentage of motility inhibition 24 h: 29%

Capreomycin (sulfate)
Percentage of motility inhibition 0 h: 12% | Percentage of motility inhibition 24 h: 0%

Cc1c2ccncc2c(C)c2c1[nH]c1ccccc12.Cl [Ellipticine (hydrochloride)]
Percentage of motility inhibition 0 h: 9% | Percentage of motility inhibition 24 h: 11%

CC(C)OC(=O)OCOP(=O)(CO[C@H](C)Cn1cnc2c(N)ncnc21)OCOC(=O)OC(C)C.O=C(O)/C=C/C(=O)O [Tenofovir (Disoproxil Fumarate)]
Percentage of motility inhibition 0 h: 5% | Percentage of motility inhibition 24 h: 1%

Nc1ccc(S(=O)(=O)[N-]c2nccs2)cc1.[Na+] [Sulfathiazole (sodium)]
Percentage of motility inhibition 0 h: 15% | Percentage of motility inhibition 24 h: 6%

(±)-Huperzine A
Percentage of motility inhibition 0 h: 0% | Percentage of motility inhibition 24 h: 16%

COc1ccc(C[C@@H]2COc3c(C)c(O)c(C)c(O)c3C2=O)cc1 [Methylophiopogonanone B]
Percentage of motility inhibition 0 h: 0% | Percentage of motility inhibition 24 h: 21%

CC(C)=C1C/C=C(\C)CC/C=C(\C)CC1=O [Germacrone]
Percentage of motility inhibition 0 h: 12% | Percentage of motility inhibition 24 h: 9%

C[C@H]1CC[C@@H]2N(C1)C[C@H]1[C@@H]3C[C@H]4[C@@H](CC(=O)[C@H]5C[C@H](O)CC[C@@]54C)[C@@H]3CC[C@H]1[C@]2(C)O [Yubeinine]
Percentage of motility inhibition 0 h: 13% | Percentage of motility inhibition 24 h: 0%

CC[C@@H](CO)NCCN[C@@H](CC)CO.Cl.Cl [Ethambutol (dihydrochloride)]
Percentage of motility inhibition 0 h: 26% | Percentage of motility inhibition 24 h: 6%

O.O.O.O.O=C([O-])CC(O)(CC(=O)[O-])C(=O)[O-].[Li+].[Li+].[Li+] [Lithium citrate (tetrahydrate)]
Percentage of motility inhibition 0 h: 13% | Percentage of motility inhibition 24 h: 0%

Oc1cc(O)c2c(c1)OC1(c3ccc(O)c(O)c3)Oc3cc(O)c4c(c3C2C1O)OC(c1ccc(O)c(O)c1)C(O)C4 (stereo not drawn) [Procyanidin A1]
Percentage of motility inhibition 0 h: 23% | Percentage of motility inhibition 24 h: 12%

CC1(C)[C@@H](O[C@H]2O[C@H](C(=O)O)[C@@H](O)[C@H](O)[C@H]2O[C@@H]2O[C@H](C(=O)O)[C@@H](O)[C@H](O)[C@H]2O)CC[C@]2(C)[C@H]3C(=O)C=C4[C@@H]5C[C@@](C)(C(=O)O)CC[C@]5(C)CC[C@@]4(C)[C@]3(C)CC[C@@H]12.N.N [Diammonium Glycyrrhizinate]
Percentage of motility inhibition 24 h: 4% and 11%

COc1ccc2c(C)c3[n+](cc2c1OC)CCc1cc2c(cc1-3)OCO2.[Cl-] [13‐Methylberberine (chloride)]
Percentage of motility inhibition 0 h: 0% | Percentage of motility inhibition 24 h: 0%

OC[C@H]1O[C@@H](Oc2cc3c(O)cc(O)cc3[o+]c2-c2ccc(O)c(O)c2)[C@H](O)[C@@H](O)[C@@H]1O.[Cl-] [Kuromanin (chloride)]
Percentage of motility inhibition 0 h: 34% | Percentage of motility inhibition 24 h: 5%

C[C@H](CC[C@@H](O[C@@H]1O[C@H](CO)[C@@H](O)[C@H](O)[C@H]1O[C@@H]1O[C@H](CO)[C@@H](O)[C@H](O)[C@H]1O)C(C)(C)O)[C@H]1CC[C@@]2(C)[C@H]3CC=C4[C@@H](CC[C@H](O[C@@H]5O[C@H](CO[C@@H]6O[C@H](CO)[C@@H](O)[C@H](O)[C@H]6O)[C@@H](O)[C@H](O)[C@H]5O)C4(C)C)[C@]3(C)[C@H](O)C[C@]12C [Mogroside IV]
Percentage of motility inhibition 0 h: 0% | Percentage of motility inhibition 24 h: 43%

CC(=O)OC(C)(C)CCC(=O)[C@](C)(O)[C@H]1[C@H](O)C[C@@]2(C)[C@@H]3CC=C4[C@@H](C[C@H](O)[C@@H](O)C4(C)C)[C@]3(C)C(=O)C[C@]12C [Cucurbitacin IIa]
Percentage of motility inhibition 0 h: 0% | Percentage of motility inhibition 24 h: 6%

COc1cc(O)c2c(=O)cc(-c3ccc(OC)c(OC)c3)oc2c1 [7,3',4'‐Tri‐O‐methylluteolin]
Percentage of motility inhibition 0 h: 13% | Percentage of motility inhibition 24 h: 21%

O=C1O[C@H]([C@@H](O)CO)C([O-])=C1O.[Na+] [L-Ascorbic acid (sodium salt)]
Percentage of motility inhibition 0 h: 6% | Percentage of motility inhibition 24 h: 3%

OCC1=C[C@@H](O)[C@]2(O[C@@H]3O[C@H](CO)[C@@H](O)[C@H](O)[C@H]3O[C@@H]3O[C@H](CO)[C@@H](O)[C@H](O)[C@H]3O)C=CO[C@@H](O[C@@H]3O[C@H](CO)[C@@H](O)[C@H](O)[C@H]3O)[C@H]12 [Rehmannioside D]
Percentage of motility inhibition 0 h: 11% | Percentage of motility inhibition 24 h: 35%

COc1ccc(-c2cc(=O)c3c(OC)cc(OC)c(OC)c3o2)cc1OC [Isosinensetin]
Percentage of motility inhibition 0 h: 0% | Percentage of motility inhibition 24 h: 2%

[Cl-].c1c2c(cc3c1OCO3)-c1cc3ccc4c(c3c[n+]1CC2)OCO4 [Coptisine (chloride)]
Percentage of motility inhibition 0 h: 1% | Percentage of motility inhibition 24 h: 6%

COC(=O)[C@H]1[C@H]2C[C@H]3c4[nH]c5ccccc5c4CCN3C[C@H]2CC[C@@H]1O.Cl [Rauwolscine (hydrochloride)]
Percentage of motility inhibition 0 h: 7% | Percentage of motility inhibition 24 h: 0%

C[N+](C)(C)CCOP(=O)([O-])OP(=O)([O-])OC[C@H]1O[C@@H](n2ccc(N)nc2=O)[C@H](O)[C@@H]1O.[Na+] [Citicoline (sodium)]
Percentage of motility inhibition 0 h: 4% | Percentage of motility inhibition 24 h: 0%

COC(=O)C1=CO[C@@H](O[C@@H]2O[C@H](CO)[C@@H](O)[C@H](O)[C@H]2O)[C@@H]2[C@@H](C)CC(=O)[C@]12O [Hastatoside]
Percentage of motility inhibition 0 h: 0% | Percentage of motility inhibition 24 h: 8%

CC(C)c1ccc2c(c1)CC[C@H]1[C@](C)(CN)CCC[C@]21C.Cl [Leelamine (hydrochloride)]
Percentage of motility inhibition 0 h: 22% | Percentage of motility inhibition 24 h: 57%

Nc1nc(/C(=C/CC(=O)O)C(=O)N[C@@H]2C(=O)N3C(C(=O)O)=CCS[C@H]23)cs1.O.O [Ceftibuten (dihydrate)]
Percentage of motility inhibition 0 h: 19% | Percentage of motility inhibition 24 h: 5%

CC1CCC(C(C)C)C(O)C1 (single isomer, unassigned; (-)) [(-)-Menthol]
Percentage of motility inhibition 0 h: 7% and 6%

CC1(C)CCC[C@]2(C)[C@H]3CC(=O)O[C@]3(C)CC[C@@H]12 [Sclareolide]
Percentage of motility inhibition 0 h: 1% | Percentage of motility inhibition 24 h: 25%

CC(C)(O[C@@H]1O[C@H](CO)[C@@H](O)[C@H](O)[C@H]1O)[C@@H]1CC[C@](C)([C@H]2[C@@H](O)C[C@@]3(C)[C@@H]4C[C@H](O)[C@H]5C(C)(C)[C@@H](O[C@@H]6OC[C@@H](O)[C@H](O)[C@H]6O)CC[C@@]56C[C@@]46CC[C@]23C)O1 [Isoastragaloside IV]
Percentage of motility inhibition 0 h: 0% | Percentage of motility inhibition 24 h: 0%

COc1cccc(C[n+]2cn(Cc3ccccc3)c(C)c2C)c1.[Cl-] [Lepidiline C]
Percentage of motility inhibition 0 h: 0% | Percentage of motility inhibition 24 h: 0%

CC(=O)O.Cc1cc2c(C(C)C)c(O)c(O)c(C=O)c2c(O)c1-c1c(C)cc2c(C(C)C)c(O)c(O)c(C=O)c2c1O [Gossypol (acetic acid)]
Percentage of motility inhibition 0 h: 0% | Percentage of motility inhibition 24 h: 7%

C[C@H](CC[C@@H](O[C@@H]1O[C@H](CO[C@@H]2O[C@H](CO)[C@@H](O)[C@H](O)[C@H]2O)[C@@H](O)[C@H](O)[C@H]1O[C@@H]1O[C@H](CO)[C@@H](O)[C@H](O)[C@H]1O)C(C)(C)O)[C@H]1CC[C@@]2(C)[C@@H]3CC=C4[C@@H](CC[C@H](O[C@@H]5O[C@H](CO[C@@H]6O[C@H](CO)[C@@H](O)[C@H](O)[C@H]6O)[C@@H](O)[C@H](O)[C@H]5O)C4(C)C)[C@]3(C)C(=O)C[C@]12C [11-oxo-mogroside V]
Percentage of motility inhibition 0 h: 3% | Percentage of motility inhibition 24 h: 24%

COc1cc(C2Oc3ccc(-c4cc(=O)c5c(O)cc(O)cc5o4)cc3OC2CO)ccc1O (racemic) [(Rac)‐Hydnocarpin]
Percentage of motility inhibition 0 h: 7% | Percentage of motility inhibition 24 h: 0%

NC(N)=NCCCC(N)C(=O)O (racemic) [DL-Arginine]
Percentage of motility inhibition 0 h: 4% | Percentage of motility inhibition 24 h: 0%

Colistin (sulfate)
Percentage of motility inhibition 0 h: 14% | Percentage of motility inhibition 24 h: 0%

CC(C)=CCc1c(O)ccc(C(=O)[C@@H]2[C@@H](c3c(O)cc(O)c4c(=O)c(CC=C(C)C)c(-c5ccc(O)cc5O)oc34)C=C(C)C[C@H]2c2ccc(O)cc2O)c1O [Kuwanon H]
Percentage of motility inhibition 0 h: 11% | Percentage of motility inhibition 24 h: 23%

CC(=O)O[C@H]1C[C@@]2(C)[C@@H](C[C@@H](O)[C@H]3[C@@]4(C)CC[C@@H](O)[C@@H](C)[C@@H]4CC[C@@]32C)/C1=C(\CCC=C(C)C)C(=O)[O-].[Na+] [Fusidic acid (sodium salt)]
Percentage of motility inhibition 24 h: 35% and 44%

Penitrem A
Percentage of motility inhibition 0 h: 0% | Percentage of motility inhibition 24 h: 14%

CC(=O)O[C@H]1Cc2cc3c(cc2[C@H]2N(C)Cc4c(ccc5c4OCO5)[C@@]12C)OCO3 [Acetylcorynoline]
Percentage of motility inhibition 0 h: 34% | Percentage of motility inhibition 24 h: 11%

CC[C@](C)(C#N)O[C@@H]1O[C@H](CO)[C@@H](O)[C@H](O)[C@H]1O [Lotaustralin]
Percentage of motility inhibition 0 h: 11% | Percentage of motility inhibition 24 h: 20%

COc1cc[nH]c(=O)c1C#N [N‐Demethylricinine]
Percentage of motility inhibition 0 h: 0% | Percentage of motility inhibition 24 h: 7%

CC(C)(O)[C@@H]1CC[C@](C)([C@H]2[C@@H](O)C[C@@]3(C)[C@@H]4C[C@H](O)[C@H]5C(C)(C)[C@@H](O)CC[C@]5(C)C4=CC[C@]23C)O1 [Astragenol]
Percentage of motility inhibition 0 h: 50% | Percentage of motility inhibition 24 h: 50%
